What was measured:
Assay in all cases: relative viability (nuclei count vs DMSO), 5 days (fraction); higher = more cells survive
A-427 = tested on: A-427
In short: (§1)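 Cells from lung cancer lines were seeded into 1536-well plates and, one day later, dosed by pin tool. Treatments were either a single drug or a fixed dose of an anchor drug with five library-drug doses (not always all listed) in √10 steps. After 5 days, nuclei were stained in a one-step fixation (final 0.05% Triton X-100, 1% formaldehyde, 1 ug/ml Hoechst) and counted on 4× images, and relative viability is the treated-to-vehicle nuclei ratio, as the median of duplicate plates.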

NCI-H1792 = tested on: NCI-H1792
In short: as §1

NCI-H23 = tested on: NCI-H23
In short: as §1

NCI-H460 = tested on: NCI-H460
In short: as §1

SW 1573 = tested on: SW 1573
In short: as §1

NCI-H1915 = tested on: NCI-H1915
In short: as §1

NCI-H2009 = tested on: NCI-H2009
In short: as §1

SK-LU-1 = tested on: SK-LU-1
In short: as §1

NCI-H1395 = tested on: NCI-H1395
In short: as §1

NCI-H1755 = tested on: NCI-H1755
In short: as §1

NCI-H522 = tested on: NCI-H522
In short: as §1

CC(=O)O[C@@]12CO[C@@H]1C[C@H](O)[C@@]1(C)C(=O)[C@H](O)C3=C(C)[C@@H](OC(=O)[C@H](O)[C@@H](NC(=O)OC(C)(C)C)c4ccccc4)C[C@@](O)([C@@H](OC(=O)c4ccccc4)[C@H]21)C3(C)C [Docetaxel] + CCNC(=O)c1noc(-c2cc(C(C)C)c(O)cc2O)c1-c1ccc(CN2CCOCC2)cc1 [Luminespib] (partner 0.01 µM)
relative viability (A-427; first compound 0.002 µM): 0.507 | relative viability (A-427; first compound 0.006325 µM): 0.238 | relative viability (A-427; first compound 0.02 µM): 0.161 | relative viability (NCI-H1792; first compound 0.0002 µM): 0.43 | relative viability (NCI-H1792; first compound 0.000632 µM): 0.374 | relative viability (NCI-H1792; first compound 0.002 µM): 0.382 | relative viability (NCI-H1792; first compound 0.006325 µM): 0.338 | relative viability (NCI-H1792; first compound 0.02 µM): 0.212 | relative viability (NCI-H23; first compound 0.0002 µM): 0.208 | relative viability (NCI-H23; first compound 0.000632 µM): 0.224 | relative viability (NCI-H23; first compound 0.002 µM): 0.233 | relative viability (NCI-H23; first compound 0.006325 µM): 0.224 | relative viability (NCI-H23; first compound 0.02 µM): 0.18 | relative viability (NCI-H460; first compound 0.0002 µM): 0.032 | relative viability (NCI-H460; first compound 0.002 µM): 0.0279 | relative viability (NCI-H460; first compound 0.006325 µM): 0.025 | relative viability (NCI-H460; first compound 0.02 µM): 0.0187 | relative viability (SW 1573; first compound 0.0002 µM): 0.165 | relative viability (SW 1573; first compound 0.000632 µM): 0.211 | relative viability (SW 1573; first compound 0.002 µM): 0.0935 | relative viability (SW 1573; first compound 0.006325 µM): 0.137 | relative viability (SW 1573; first compound 0.02 µM): 0.0617 | relative viability (NCI-H1915; first compound 0.0002 µM): 0.838 | relative viability (NCI-H1915; first compound 0.000632 µM): 0.796 | relative viability (NCI-H1915; first compound 0.002 µM): 0.467 | relative viability (NCI-H1915; first compound 0.006325 µM): 0.141 | relative viability (NCI-H1915; first compound 0.02 µM): 0.0759 | relative viability (NCI-H2009; first compound 0.0002 µM): 0.979 | relative viability (NCI-H2009; first compound 0.000632 µM): 1.09 | relative viability (NCI-H2009; first compound 0.002 µM): 0.956 | relative viability (NCI-H2009; first compound 0.006325 µM): 0.78 | relative viability (NCI-H2009; first compound 0.02 µM): 0.261 | relative viability (SK-LU-1; first compound 0.0002 µM): 0.205 | relative viability (SK-LU-1; first compound 0.000632 µM): 0.218 | relative viability (SK-LU-1; first compound 0.006325 µM): 0.193 | relative viability (SK-LU-1; first compound 0.02 µM): 0.159 | relative viability (NCI-H1395; first compound 0.0002 µM): 0.699 | relative viability (NCI-H1395; first compound 0.000632 µM): 0.771 | relative viability (NCI-H1395; first compound 0.002 µM): 0.496 | relative viability (NCI-H1395; first compound 0.006325 µM): 0.391 | relative viability (NCI-H1395; first compound 0.02 µM): 0.286 | relative viability (NCI-H1755; first compound 0.0002 µM): 0.427 | relative viability (NCI-H1755; first compound 0.000632 µM): 0.492 | relative viability (NCI-H1755; first compound 0.002 µM): 0.271 | relative viability (NCI-H1755; first compound 0.006325 µM): 0.218 | relative viability (NCI-H1755; first compound 0.02 µM): 0.151 | relative viability (NCI-H522; first compound 0.0002 µM): 1.19 | relative viability (NCI-H522; first compound 0.000632 µM): 1.02 | relative viability (NCI-H522; first compound 0.002 µM): 0.703 | relative viability (NCI-H522; first compound 0.006325 µM): 0.419 | relative viability (NCI-H522; first compound 0.02 µM): 0.357

From the supplement of paper PMC10307832
